Key:
5-HT3 = target: T1, 5-HT3 (Homo sapiens, UniProt P46098); test: biochemical; set-up: Safety pharmacology off-target panel at Eurofins, radioligand binding with agonist or antagonist radioligand (Supplementary Table 2); settings: antagonist radioligand
T1 construct: gene HTR3A
Procedure: (§1) Wide-range phosphatase, kinase and preclinical safety pharmacology off-target activity screens were conducted at Eurofins (Extended Data Table 5 and Supplementary Tables 1 and 2). A small phosphatase panel was developed at AbbVie to assess IC50 values on select phosphatases. The following enzymes used in the phosphatase selectivity panel were purchased from Eurofins: PTPN1 (PTP1B; 14–621), PTPN2 (TC-PTP; 14–646), PTPN9 (14–592), SHP1 (14–591) and SHP2 (14–622). The catalytic activity of the phosphatase was monitored using the small-molecule substrate DiFMUP (ThermoFisher) in a fluorescence assay format. In brief, the phosphatase reactions were performed at room temperature in the following assay buffer: 50 mM HEPES, pH 7.2, 100 mM NaCl, 1 mM EDTA, 0.005% Tween-20 and 5 mM TCEP. Each phosphatase was incubated with increasing concentrations of AC484 for 5 min, after which the substrate DiFMUP was added and incubated at 25 °C for 30 min. The final concentration of the enzyme and substrate was maintained at 0.5 nM and 5 μM, respectively, in all the assays. The reaction was then quenched by the addition of a 100 μM solution of bpV(Phen) (Enzo Life Sciences). The fluorescence signal was monitored using an Envision microplate reader (Perkin-Elmer) using excitation and emission wavelengths of 340 nm and 450 nm, respectively. The dose–response curves for the inhibitors were analysed using normalized IC50 regression curve fitting with control-based normalization. Supplementary file 41586_2023_6575_MOESM4_ESM.xlsx: Supplementary Table 2 AC484 receptor selectivity screen.

A2A (h) = target: T2, A2A (h) (Homo sapiens, UniProt P29274); test: biochemical; set-up: Safety pharmacology off-target panel at Eurofins, radioligand binding with agonist or antagonist radioligand (Supplementary Table 2); settings: agonist radioligand
T2 construct: gene ADORA2A
Procedure: as §1

ETB = target: T3, ETB (Homo sapiens, UniProt P24530); test: biochemical; set-up: Safety pharmacology off-target panel at Eurofins, radioligand binding with agonist or antagonist radioligand (Supplementary Table 2); settings: agonist radioligand
T3 construct: gene EDNRB
Procedure: as §1

M4 = target: T4, M4 (Homo sapiens, UniProt P08173); test: biochemical; set-up: Safety pharmacology off-target panel at Eurofins, radioligand binding with agonist or antagonist radioligand (Supplementary Table 2); settings: antagonist radioligand
T4 construct: gene CHRM4
Procedure: as §1

UT = target: T5, UT (Homo sapiens, UniProt Q9UKP6); test: biochemical; set-up: Safety pharmacology off-target panel at Eurofins, radioligand binding with agonist or antagonist radioligand (Supplementary Table 2); settings: agonist radioligand
T5 construct: gene UTS2R
Procedure: as §1

EP2 = target: T6, EP2 (Homo sapiens, UniProt P43116); test: biochemical; set-up: Safety pharmacology off-target panel at Eurofins, radioligand binding with agonist or antagonist radioligand (Supplementary Table 2); settings: agonist radioligand
T6 construct: gene PTGER2
Procedure: as §1

CB1 = target: T7, CB1 (Homo sapiens, UniProt P21554); test: biochemical; set-up: Safety pharmacology off-target panel at Eurofins, radioligand binding with agonist or antagonist radioligand (Supplementary Table 2); settings: agonist radioligand
T7 construct: gene CNR1
Procedure: as §1

CAMK2A = CAMK2A (Homo sapiens, UniProt Q9UQM7); test: biochemical; set-up: Kinase selectivity panel, IC50 of AC484 (Supplementary Table 1)
MST1 = target: T8, MST1 (Homo sapiens, UniProt Q13043); test: biochemical; set-up: Kinase selectivity panel, IC50 of AC484 (Supplementary Table 1)
T8 construct: gene STK4

RIPK2 = RIPK2 (Homo sapiens, UniProt O43353); test: biochemical; set-up: Kinase selectivity panel, IC50 of AC484 (Supplementary Table 1)
PAK4KD = target: T9, PAK4KD (Homo sapiens, UniProt O96013); test: biochemical; set-up: Kinase selectivity panel, IC50 of AC484 (Supplementary Table 1)
T9 construct: gene PAK4; kinase domain

ITK = ITK (Homo sapiens, UniProt Q08881); test: biochemical; set-up: Kinase selectivity panel, IC50 of AC484 (Supplementary Table 1)
ErbB2 = ErbB2 (Homo sapiens, UniProt P04626); test: biochemical; set-up: Kinase selectivity panel, IC50 of AC484 (Supplementary Table 1)
TAOK2 = TAOK2 (Homo sapiens, UniProt Q9UL54); test: biochemical; set-up: Kinase selectivity panel, IC50 of AC484 (Supplementary Table 1)
CLK2 = CLK2 (Homo sapiens, UniProt P49760); test: biochemical; set-up: Kinase selectivity panel, IC50 of AC484 (Supplementary Table 1)
BRAF = BRAF (Homo sapiens, UniProt P15056); test: biochemical; set-up: Kinase selectivity panel, IC50 of AC484 (Supplementary Table 1)
PKCzeta = target: T10, PKCzeta (Homo sapiens, UniProt Q05513); test: biochemical; set-up: Kinase selectivity panel, IC50 of AC484 (Supplementary Table 1)
T10 construct: gene PRKCZ

Erk2 = target: T11, Erk2 (Homo sapiens, UniProt P28482); test: biochemical; set-up: Kinase selectivity panel, IC50 of AC484 (Supplementary Table 1)
T11 construct: gene MAPK1

GRK5 = GRK5 (Homo sapiens, UniProt P34947); test: biochemical; set-up: Kinase selectivity panel, IC50 of AC484 (Supplementary Table 1)
Lck = Lck (Homo sapiens, UniProt P06239); test: biochemical; set-up: Kinase selectivity panel, IC50 of AC484 (Supplementary Table 1)
ACVR1 = ACVR1 (Homo sapiens, UniProt Q04771); test: biochemical; set-up: Kinase selectivity panel, IC50 of AC484 (Supplementary Table 1)
PTPN1 = target: T12, PTPN1 (Homo sapiens, UniProt P18031); test: mobility shift enzyme assay with labelled insulin receptor phosphopeptide (crystal with PTPN1 mentioned, data not shown); type: biochemical
T12 construct: full-length recombinant
T12 sequence (P18031 whole entry): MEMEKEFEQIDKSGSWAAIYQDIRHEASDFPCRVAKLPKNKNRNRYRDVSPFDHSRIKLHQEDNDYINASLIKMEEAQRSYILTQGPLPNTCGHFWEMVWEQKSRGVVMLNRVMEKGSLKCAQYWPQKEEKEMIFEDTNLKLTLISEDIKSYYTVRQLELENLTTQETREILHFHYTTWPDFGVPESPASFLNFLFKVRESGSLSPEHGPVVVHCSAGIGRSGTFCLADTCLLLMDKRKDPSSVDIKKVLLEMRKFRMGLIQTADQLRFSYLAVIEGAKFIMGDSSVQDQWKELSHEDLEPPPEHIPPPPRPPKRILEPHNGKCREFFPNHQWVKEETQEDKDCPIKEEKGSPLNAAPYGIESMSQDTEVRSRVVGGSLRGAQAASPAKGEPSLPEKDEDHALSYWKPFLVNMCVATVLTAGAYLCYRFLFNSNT

T11 sequence (P28482 whole entry): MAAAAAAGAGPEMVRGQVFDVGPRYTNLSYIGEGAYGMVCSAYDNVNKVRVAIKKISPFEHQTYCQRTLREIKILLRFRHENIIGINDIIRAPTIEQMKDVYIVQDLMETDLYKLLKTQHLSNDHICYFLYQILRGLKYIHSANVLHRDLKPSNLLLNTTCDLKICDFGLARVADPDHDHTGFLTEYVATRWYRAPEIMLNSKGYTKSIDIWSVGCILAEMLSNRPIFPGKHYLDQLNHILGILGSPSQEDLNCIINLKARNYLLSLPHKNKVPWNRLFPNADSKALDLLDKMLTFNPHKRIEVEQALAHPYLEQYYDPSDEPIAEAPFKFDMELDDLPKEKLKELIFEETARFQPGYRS
T5 sequence (Q9UKP6 whole entry): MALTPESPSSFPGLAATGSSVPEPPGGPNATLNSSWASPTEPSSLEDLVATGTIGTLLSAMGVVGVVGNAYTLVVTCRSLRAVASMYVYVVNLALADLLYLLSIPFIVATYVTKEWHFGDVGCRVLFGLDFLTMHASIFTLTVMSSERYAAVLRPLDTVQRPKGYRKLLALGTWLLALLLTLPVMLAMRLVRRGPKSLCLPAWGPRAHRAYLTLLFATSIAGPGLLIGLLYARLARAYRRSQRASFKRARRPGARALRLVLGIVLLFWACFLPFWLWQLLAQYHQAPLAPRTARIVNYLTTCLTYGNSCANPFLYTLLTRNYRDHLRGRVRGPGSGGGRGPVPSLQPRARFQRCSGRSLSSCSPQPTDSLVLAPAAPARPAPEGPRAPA
T8 sequence (Q13043 whole entry): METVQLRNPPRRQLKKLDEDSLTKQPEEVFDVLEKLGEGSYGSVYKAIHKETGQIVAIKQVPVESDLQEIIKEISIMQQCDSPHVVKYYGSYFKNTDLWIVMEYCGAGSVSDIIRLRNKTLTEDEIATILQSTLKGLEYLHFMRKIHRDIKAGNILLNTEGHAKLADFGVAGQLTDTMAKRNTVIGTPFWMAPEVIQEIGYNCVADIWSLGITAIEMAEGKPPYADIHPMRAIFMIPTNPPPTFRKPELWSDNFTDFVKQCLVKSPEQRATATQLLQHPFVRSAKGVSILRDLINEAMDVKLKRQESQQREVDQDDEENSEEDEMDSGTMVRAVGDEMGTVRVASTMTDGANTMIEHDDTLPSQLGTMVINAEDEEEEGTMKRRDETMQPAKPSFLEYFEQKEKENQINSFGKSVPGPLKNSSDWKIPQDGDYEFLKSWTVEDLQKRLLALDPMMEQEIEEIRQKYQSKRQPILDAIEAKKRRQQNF
T1 sequence (P46098 whole entry): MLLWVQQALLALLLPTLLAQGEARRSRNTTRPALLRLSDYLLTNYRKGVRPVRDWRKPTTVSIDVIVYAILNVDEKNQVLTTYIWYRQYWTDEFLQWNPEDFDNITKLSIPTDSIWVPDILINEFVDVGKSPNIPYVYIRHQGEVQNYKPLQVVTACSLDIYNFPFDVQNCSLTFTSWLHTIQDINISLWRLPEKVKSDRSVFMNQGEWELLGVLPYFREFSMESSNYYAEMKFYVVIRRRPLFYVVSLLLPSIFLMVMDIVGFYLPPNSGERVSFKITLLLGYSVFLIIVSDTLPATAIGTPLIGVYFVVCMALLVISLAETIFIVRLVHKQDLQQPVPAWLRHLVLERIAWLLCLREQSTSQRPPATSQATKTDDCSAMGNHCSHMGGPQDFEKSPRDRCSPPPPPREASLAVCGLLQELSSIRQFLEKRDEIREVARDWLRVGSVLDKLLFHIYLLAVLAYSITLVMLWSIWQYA
T3 sequence (P24530 whole entry): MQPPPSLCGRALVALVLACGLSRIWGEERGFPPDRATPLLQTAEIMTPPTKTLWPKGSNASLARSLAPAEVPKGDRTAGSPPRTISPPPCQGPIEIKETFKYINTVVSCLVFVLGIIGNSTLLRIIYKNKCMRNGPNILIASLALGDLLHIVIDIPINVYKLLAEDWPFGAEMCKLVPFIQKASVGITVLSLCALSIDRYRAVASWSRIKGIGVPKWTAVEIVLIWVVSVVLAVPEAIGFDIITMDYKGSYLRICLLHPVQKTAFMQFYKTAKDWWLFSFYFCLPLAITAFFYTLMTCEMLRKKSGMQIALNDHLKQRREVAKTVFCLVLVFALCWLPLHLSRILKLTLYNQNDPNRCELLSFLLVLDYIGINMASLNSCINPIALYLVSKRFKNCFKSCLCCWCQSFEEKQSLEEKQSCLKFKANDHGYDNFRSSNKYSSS
T2 sequence (P29274 whole entry): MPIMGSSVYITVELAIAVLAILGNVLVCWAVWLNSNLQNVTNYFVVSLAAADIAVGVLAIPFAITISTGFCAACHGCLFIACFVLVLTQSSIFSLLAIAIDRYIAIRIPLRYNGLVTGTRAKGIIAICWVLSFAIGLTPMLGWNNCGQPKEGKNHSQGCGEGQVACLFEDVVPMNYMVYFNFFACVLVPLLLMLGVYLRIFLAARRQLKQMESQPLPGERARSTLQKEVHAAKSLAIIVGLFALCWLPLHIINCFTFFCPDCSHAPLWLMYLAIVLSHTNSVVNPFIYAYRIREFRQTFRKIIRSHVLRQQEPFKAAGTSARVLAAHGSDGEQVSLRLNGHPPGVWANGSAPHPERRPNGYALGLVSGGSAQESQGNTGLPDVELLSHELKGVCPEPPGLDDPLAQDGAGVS
TAOK2, sequence (Q9UL54 whole entry): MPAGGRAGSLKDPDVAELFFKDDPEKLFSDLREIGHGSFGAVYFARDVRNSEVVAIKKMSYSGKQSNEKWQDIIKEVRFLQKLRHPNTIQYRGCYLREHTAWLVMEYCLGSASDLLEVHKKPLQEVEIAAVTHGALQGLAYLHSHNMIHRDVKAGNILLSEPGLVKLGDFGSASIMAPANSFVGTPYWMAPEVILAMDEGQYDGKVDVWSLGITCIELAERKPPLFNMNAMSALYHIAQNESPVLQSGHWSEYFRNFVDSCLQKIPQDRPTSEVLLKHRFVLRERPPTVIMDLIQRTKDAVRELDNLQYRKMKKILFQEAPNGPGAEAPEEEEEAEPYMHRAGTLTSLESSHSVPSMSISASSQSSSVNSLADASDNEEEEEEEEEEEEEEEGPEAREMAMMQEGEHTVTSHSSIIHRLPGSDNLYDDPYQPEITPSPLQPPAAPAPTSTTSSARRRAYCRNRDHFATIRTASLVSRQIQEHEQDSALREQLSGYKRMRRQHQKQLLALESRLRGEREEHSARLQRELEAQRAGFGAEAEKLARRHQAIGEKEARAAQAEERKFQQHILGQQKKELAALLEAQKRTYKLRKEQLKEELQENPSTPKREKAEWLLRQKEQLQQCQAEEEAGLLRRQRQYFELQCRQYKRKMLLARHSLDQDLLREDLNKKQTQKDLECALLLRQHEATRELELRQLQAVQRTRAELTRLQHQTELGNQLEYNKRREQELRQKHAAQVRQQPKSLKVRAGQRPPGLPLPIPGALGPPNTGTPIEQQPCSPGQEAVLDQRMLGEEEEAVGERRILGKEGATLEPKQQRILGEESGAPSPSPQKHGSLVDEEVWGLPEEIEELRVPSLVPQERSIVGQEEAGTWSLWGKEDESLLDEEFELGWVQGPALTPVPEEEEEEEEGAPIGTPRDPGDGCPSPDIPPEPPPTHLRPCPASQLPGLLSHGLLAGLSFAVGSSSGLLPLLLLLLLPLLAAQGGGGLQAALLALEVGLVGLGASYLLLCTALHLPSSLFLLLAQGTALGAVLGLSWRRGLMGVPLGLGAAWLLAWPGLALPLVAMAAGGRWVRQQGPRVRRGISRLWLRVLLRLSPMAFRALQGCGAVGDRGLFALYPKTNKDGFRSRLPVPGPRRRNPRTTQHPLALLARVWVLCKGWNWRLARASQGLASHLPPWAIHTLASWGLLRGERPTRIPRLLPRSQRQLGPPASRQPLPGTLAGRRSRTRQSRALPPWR
T4 sequence (P08173 whole entry): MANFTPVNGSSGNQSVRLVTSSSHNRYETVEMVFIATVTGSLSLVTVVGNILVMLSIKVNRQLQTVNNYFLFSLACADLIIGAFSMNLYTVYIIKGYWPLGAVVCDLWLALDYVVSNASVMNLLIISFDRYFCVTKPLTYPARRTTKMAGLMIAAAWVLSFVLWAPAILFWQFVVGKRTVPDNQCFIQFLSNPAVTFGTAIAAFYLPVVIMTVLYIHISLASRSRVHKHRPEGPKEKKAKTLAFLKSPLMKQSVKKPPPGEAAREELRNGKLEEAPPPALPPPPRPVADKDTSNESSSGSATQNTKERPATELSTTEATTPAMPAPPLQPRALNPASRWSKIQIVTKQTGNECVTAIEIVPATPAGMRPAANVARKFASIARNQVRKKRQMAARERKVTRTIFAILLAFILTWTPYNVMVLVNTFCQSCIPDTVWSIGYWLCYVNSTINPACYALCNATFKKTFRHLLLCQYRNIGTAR

CC(C)CCN[C@@H]1CCc2cc(O)c(N3CC(=O)NS3(=O)=O)c(F)c2C1 [AC484, ABBV-CLS-484]
> 0.01 mM: AC50 (5-HT3) | AC50 (A2A (h)) | AC50 (ETB) | AC50 (M4) | AC50 (UT) | AC50 (EP2) | AC50 (CB1)
> 10 µM: IC50 (CAMK2A) | IC50 (MST1) | IC50 (RIPK2) | IC50 (PAK4KD) | IC50 (ITK) | IC50 (ErbB2) | IC50 (TAOK2) | IC50 (CLK2) | IC50 (BRAF) | IC50 (PKCzeta) | IC50 (Erk2) | IC50 (GRK5) | IC50 (Lck) | IC50 (ACVR1)
0.0025 µM: IC50 (PTPN1)

From article PMC10599993, “The PTPN2/PTPN1 inhibitor ABBV-CLS-484 unleashes potent anti-tumour immunity” (Nature, 2023)
